# Results published in patent publication US10653672B2, “Myogenesis promotor, muscle atrophy inhibitor, medical composition and TAZ activator” (National University Corporation Tokyo Medical and Dental …, priority 2014, dated 2020).
# Where “and” joins values, the source holds several entries; their conditions need not be identical. Equal values may be shown once.
# How the values were obtained:
# C2C12 cells = experiment: Antagonistic action on myostatin in C2C12 cells; type: cell-based, mouse; settings: differentiation condition 72 hours
# Source text: Myostatin is a protein and a member of a transforming growth factor […] superfamily, and inhibits muscle growth and differentiation. Myostatin binds activin type IIB receptor and triggers SMAD2/3-dependent signaling. Since TAZ interacts with SMAD2/3, effects of IBS008738 on the signaling of myostatin was examined (FIGS. 8A to 8C). The line in the figures is 100 μm. The line and the error bar indicate the average value and the standard error, *p<0.05, […], ***p<0.001, ns refers to not significant.
# (1) C2C12 cells in which TAZ was knocked down (si TAZ) and C2C12 cells in which TAZ was not knocked down (si Cont) were grown to confluence, respectively, A stock solution of 100 μg/mL myostatin in 4 mM […] with 0.1% (w/v) BSA and a stock solution of 10 mM IBS008738 in DMSO were prepared. The cells were cultured at differentiation condition for 72 hours in a 1 mL medium with 1 μL DMSO, a 1 mL medium with 1 μL myostatin stock solution, and a 1 mL medium with 1 μL IBS008738 stock solution. As a result, muscle formation of the C2C12 cells was inhibited in the case with only myostatin, but muscle formation of the C2C12 cells was recovered in the case with myostatin and IBS008738.
# (2) The fusion index of C2C12 cells in which TAZ was knocked down (si TAZ) and C2C12 cells in which TAZ was not knocked down (si Cont), after being cultured under differentiation condition for 72 hours, was analyzed.
# Expression of MHC of C2C12 cells in which TAZ was knocked down (si TAZ) and C2C12 cells in which TAZ was not knocked down (si Cont), after being cultured under differentiation condition for 72 hours, was analyzed by immunoblotting. As a result, expression of MHC decreased in the case with only myostatin, whereas it recovered in the case with myostatin and IBS008738 (see FIG. 8C).
# Balb/c ByJ mice = experiment: Suppression of dexamethasone-induced muscle atrophy; type: in vivo, mouse; settings: 20 μL of 25 mg/mL stock intraperitoneally each day for a week; day 14
# Procedure: (1) A 25 mg/mL dexamethasone stock solution in DMSO was prepared. Three Balb/c ByJ mice (6 week, female) were intraperitoneally injected with 20 μL of the dexamethasone stock solution, each day for a week. As a control group, three other individuals were injected with 20 μL of DMSO. On day 9, 11 and 13, each group of the mice was injected with a solution prepared by dissolving 0.3 μL of 10 mM IBS008738 stock solution in 100 μL PBS, on one hindlimb muscle, and with 100 μL PBS on the other hindlimb muscle. The mice were sacrificed at day 14, and the muscle tissues were fixed and stained with hematoxylin and eosin (see FIG. 8D). It was observed that the muscle fibers of the mice administered with dexamethasone were shrinked.
# (2) The cross section of the muscle fibers of the individual intraperitoneally injected with dexamethasone was stained with an anti-laminin antibody and observed. […] The cross-section area of muscle fibers (500 per individual) of the three mice was measured. As a result, the area of the individual injected with IBS008738 was greater than the area of the individual injected with DMSO (see FIG. 9F). The cross-section area of muscle fibers was analyzed with Image J software.
muscle fibers of the mice administered with dexamethasone (Balb/c ByJ mice),Compound,"muscle formation of the C2C12 cells (C2C12 cells; TAZ not knocked down, 1 μL myostatin stock (100 μg/mL) and/or 1 μL 10 mM IBS008738 stock in 1 mL medium)",expression of MHC (C2C12 cells; immunoblotting),Fusion index (C2C12 cells; siCont C2C12 cells),Fusion index (C2C12 cells; siTAZ C2C12 cells)
,myostatin [MSTN],inhibited,decreased,0.06 and 0.05,0.02 and 0.03 and 0.04
shrinked,"C[C@@H]1C[C@H]2[C@@H]3CCC4=CC(=O)C=C[C@]4(C)[C@@]3(F)[C@@H](O)C[C@]2(C)[C@@]1(O)C(=O)CO [dexamethasone, reference compound]",,,,
